The nature of this assay: Sensory evaluation of 5 Brix and 10 Brix acidified water beverages by 15 panelists. Details: Astringency / Acidity / Sweet Aftertaste / Bitter Aftertaste / Overall Liking / Sweetness / Bitterness: scale not given here. The note with it: panel score. In kind it is in vivo. On the procedure:
5 Brix and 10 Brix beverages were prepared by combining purified water containing 303 ppm citric acid and a sweetener. The 5 Brix beverages contained one of the following sweeteners: (i) 5% (wt/wt) sugar, (ii) 200 ppm A95 or (iii) 200 ppm of a 70 wt % Reb D/30 wt % Reb M blend. The 10 Brix beverages contained one of the following sweeteners: (i) 10% (wt/wt) sugar, (ii) 900 ppm A95 or (iii) 900 ppm of a 70 wt % Reb D/30wt % Reb M blend.
The beverages were served at room temperature in 2 oz clear plastic sample cups. 15 panelists evaluated the beverages for various tastes and flavors. Prior to sample evaluation, all panelists rinsed their palate with warm water. The assessors were instructed to take a sip of each beverage and rate the mouth feel and taste/flavor characteristics. 15 seconds after ingestion panelists were instructed to rate sweetness linger and aftertaste. Between samples evaluation a 1 minute rest period was allowed during which they rinsed their palate with warm water and 0.25% NaCl solution.
The various tastes and flavors measured in the evaluation are defined as follows: […]

Setting [1] is: 5 brix target, 5% sugar, 200 ppm A95 or 200 ppm blend.
The mark [2] stands for this setting: 10 brix target, 10% sugar, 900 ppm A95 or 900 ppm blend.

Regarding `OC[C@H]1O[C@@](CO)(O[C@H]2O[C@H](CO)[C@@H](O)[C@H](O)[C@H]2O)[C@@H](O)[C@@H]1O` [Sugar], under setting [1], the Acidity was 0.99, the Astringency was 0.84, the “Bitter Aftertaste” value turned out to be 0.33 and the Bitterness is 0.75. In addition, under setting [1], the “Off-Note (Metallic/Licorice)” value worked out at 0.52, the “Overall Liking” value is recorded as 4.96, the “Sweet Aftertaste” value amounted to 0.56 and the Sweetness is recorded as 4.91. Besides, under setting [2], the Acidity amounted to 1.08, the Astringency is recorded as 0.92, the “Bitter Aftertaste” value worked out at 0.37 and the Bitterness stood at 0.55. Further, under setting [2], the “Off-Note (Metallic/Licorice)” value came to 0.51, the “Overall Liking” value was determined as 6.34, the “Sweet Aftertaste” value turned out to be 1.08 and the Sweetness is on record as 8.45.

The values are drawn from patent US20220232869A1, “Steviol Glycoside Sweeteners with Improved Flavor Profiles” (The Coca-Cola Company, priority 2015, published 2022).
